Results from US8765735B2, “Isoxazolines as inhibitors of fatty acid amide hydrolase” (Infinity Pharmaceuticals, Inc., priority 2009, dated 2014).

The compounds below were run against T1, human FAAH (Homo sapiens, UniProt O00519) (assay: Inhibition of human FAAH (fluorescence assay, AMC arachidonoyl amide substrate)). Details: solubilized human FAAH from transfected COS-7 cells; 30 min preincubation; 20 μM AMC-arachidonoyl amide; 4 h at room temperature.
T1 construct: host or cells: COS-7 cells, transient transfection; 13,000 g membrane fraction solubilised in 1% Triton X-100
T1 sequence (O00519 1-579): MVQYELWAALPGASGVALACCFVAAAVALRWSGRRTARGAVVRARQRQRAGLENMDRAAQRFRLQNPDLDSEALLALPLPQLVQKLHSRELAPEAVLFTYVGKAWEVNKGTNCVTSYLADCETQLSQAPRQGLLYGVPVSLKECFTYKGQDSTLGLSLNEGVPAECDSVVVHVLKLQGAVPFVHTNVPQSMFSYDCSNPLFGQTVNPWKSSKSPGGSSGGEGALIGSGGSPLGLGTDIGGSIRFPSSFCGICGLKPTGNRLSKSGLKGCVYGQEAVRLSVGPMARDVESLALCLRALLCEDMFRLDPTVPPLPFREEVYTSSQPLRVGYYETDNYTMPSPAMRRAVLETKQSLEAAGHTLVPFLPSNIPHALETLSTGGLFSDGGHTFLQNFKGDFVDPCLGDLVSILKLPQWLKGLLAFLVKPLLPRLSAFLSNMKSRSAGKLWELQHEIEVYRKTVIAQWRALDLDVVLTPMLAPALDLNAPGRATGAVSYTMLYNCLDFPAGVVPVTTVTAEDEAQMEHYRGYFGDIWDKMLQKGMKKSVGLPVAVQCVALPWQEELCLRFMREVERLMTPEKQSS
Format: biochemical
Protocol: Human FAAH Preparation: COS-7 cells were split the day before, 1:5 into 150 mm×25 mm cell culture dishes (Corning Inc., Cat. No. 430599). Transient transfection took place at 30-40% confluency according to FuGENE 6 Transfection Reagent (Roche, Cat. No. 11814 443 001).
Transfection Procedure: The FuGENE transfection 6 reagent (45 uL) was added to 1410 μL of media (DMEM, serum free without pen/strep) in a 15 mL conical tube and incubated at room temp for 5 minutes, followed by the addition of FAAH plasmid DNA (15 μg) (OriGene Cat. No. TC119221, Genbank Accession No. NM_001441.1, 0.67 ug/uL) and a further incubation of 15 minutes at room temperature. The resulting solution was added into one dish of 30-40% confluent COS-7 cells in a drop-wise manner. The COS-7 cell dish was subsequently incubated for 48 hours. The cells are then harvested.
Harvest procedure: Media was aspirated from the dishes and the cells rinsed with 10 mL PBS. The PBS was removed and 3 mL of PBS added to the dish. The dish was scraped to resuspend the cells, and the subsequent cell suspension collected into a 15 mL conical tube. The cells were pelleted by centrifugation at 1200 rpm for 5 minutes in a bench top centrifuge. PBS was removed and the cell pellet snap frozen in liquid nitrogen and stored at −80° C.
COS-7 cells—FAAH purification: • (1) Fractionation: Frozen cell pellets from transient transfections were thawed on ice and resuspended in 12.5 mM Hepes pH 8.0, 100 mM NaCl, 1 mM EDTA (10 mL/0.2 g cell pellet). The pellets were dounce homogenized and then sonicated to produce cell extract. The cell extract was subsequently centrifuged at 1000 g to remove cellular debris. The pellet was discarded and the supernatant centrifuged at 13,000 g for 20 minutes. The pellet contained membrane bound FAAH. The supernatant was discarded and the pellet resolubilized. • (2) Re-solubilization: The fraction of interest, (13,000 g, membrane fraction) was re-suspended in 2.3 mL re-suspension buffer (20 mM Hepes pH 7.8, 10% v/v Glycerol, 1 mM EDTA, 1% Triton X-100) and the sample incubated on ice for 1 hour and then centrifuged to remove any particulate matter. The supernatant containing solubilized human FAAH was aliquoted and snap frozen in liquid nitrogen and stored at 80° C. until use. • (3) Characterization: Protein Concentration determined by Bradford assay. • SDS gel and Western blot to confirm presence of FAAH • FAAH activity assay • Km determination—96-well assay • Linear dependence—96-well assay • Standard compound Ki determination—384-well assay
Human FAAH assay; Experimental Protocol: A 0.1 mg/mL Human FAAH solution was made up in FAAH reaction buffer, and 24 ul pipeted into a 384 well plate. To this was added 1 μL of a 3 fold serially diluted inhibitor from a DMSO stock solution. The FAAH solution and inhibitor were incubated for 30 minutes at room temperature. The FAAH reaction was initiated by the addition of 25 μL of 40 μM AMC Arachidonoyl Amide in FAAH reaction buffer, yielding a final reaction human FAAH preparation concentration of 0.05 mg/ml and AMC-Arachidonoyl substrate concentration of 20 μM, reaction volume 50 μL. The reaction was allowed to proceed for 4 hours at room temperature. The reaction was stopped by the addition of 25 μL 12 μM a-ketoheterocycle (Cayman Chemicals, catalogue #10435). The microtiter plate was read in the envision plate reader.
The raw fluorescence was plotted on the y axis and the inhibitor concentration on the x axis to give a dose response inhibition curve. The data was fitted to a single site competitive inhibition equation, fixing the Km for the human enzyme to 12 μM and 9 μM respectively.

Ki [nM]	SMILES
≤ 100	BrC1=NO[C@]2(CC[C@H](COc3ccccc3)CC2)C1 [III-8a]
≤ 100	BrC1=NOC2(CCN(CCCc3ccccc3)CC2)C1 [III-28]
≤ 100	BrC1=NO[C@]2(CC[C@H](c3ccccc3)CC2)C1 [III-3a]
≤ 100	FC(F)(F)Oc1ccc2c(c1)CC[C@]21CC(Br)=NO1 [III-66b]
≤ 100	Clc1ccc(CN2CCC3(CC2)CC(Oc2cncnc2)=NO3)cc1 [III-52]
100 to 1000	BrC1=NOC2(CCN(c3ccc(Br)cc3)CC2)C1 [III-31]
100 to 1000	CC(C)(C)OC(=O)N1CC[C@@]2(CC(Br)=NO2)C1 [III-11a]
≤ 100	FC(F)(F)c1ccc(CN2CCC3(CC2)CC(Br)=NO3)cc1 [III-26]
